# Results published in patent US20250026748A1, “N-(5-SUBSTITUTED-[(1,3,4-THIADIAZOLYL) OR (THIAZOLYL)])(SUBSTITUTED)CARBOXAMIDE COMPOUNDS AND USE THEREOF FOR INHIBITING HUMAN POLYMERASE THETA” (Repare Therapeutics Inc., priority 2021, published 2025).
# Biological target: PolQ ATPase enzyme (1-894) (Homo sapiens (Human), UniProt O75417)
# Assay: Polθ ATPase enzymatic assay (0.5 nM enzyme concentration), ADP-Glo
# Type: biochemical
# Conditions: average IC50; 0.5 nM PolQ ATPase enzyme (1-894)
# In short: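 Enzyme (0.5 nM) pre-incubated 15 min at rt with 10-point inhibitor series in 50 mM Tris pH 7.5, 10% glycerol, 5 mM DTT, 10 mM MgCl2, 0.1 mg/ml BSA; reaction started with 20 nM fork DNA and 100 μM ATP, run 180 min at rt. ADP-Glo luminescence; IC50 from 4-parameter variable-slope fit.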
# PolQ ATPase enzyme (1-894), sequence (O75417 1-894): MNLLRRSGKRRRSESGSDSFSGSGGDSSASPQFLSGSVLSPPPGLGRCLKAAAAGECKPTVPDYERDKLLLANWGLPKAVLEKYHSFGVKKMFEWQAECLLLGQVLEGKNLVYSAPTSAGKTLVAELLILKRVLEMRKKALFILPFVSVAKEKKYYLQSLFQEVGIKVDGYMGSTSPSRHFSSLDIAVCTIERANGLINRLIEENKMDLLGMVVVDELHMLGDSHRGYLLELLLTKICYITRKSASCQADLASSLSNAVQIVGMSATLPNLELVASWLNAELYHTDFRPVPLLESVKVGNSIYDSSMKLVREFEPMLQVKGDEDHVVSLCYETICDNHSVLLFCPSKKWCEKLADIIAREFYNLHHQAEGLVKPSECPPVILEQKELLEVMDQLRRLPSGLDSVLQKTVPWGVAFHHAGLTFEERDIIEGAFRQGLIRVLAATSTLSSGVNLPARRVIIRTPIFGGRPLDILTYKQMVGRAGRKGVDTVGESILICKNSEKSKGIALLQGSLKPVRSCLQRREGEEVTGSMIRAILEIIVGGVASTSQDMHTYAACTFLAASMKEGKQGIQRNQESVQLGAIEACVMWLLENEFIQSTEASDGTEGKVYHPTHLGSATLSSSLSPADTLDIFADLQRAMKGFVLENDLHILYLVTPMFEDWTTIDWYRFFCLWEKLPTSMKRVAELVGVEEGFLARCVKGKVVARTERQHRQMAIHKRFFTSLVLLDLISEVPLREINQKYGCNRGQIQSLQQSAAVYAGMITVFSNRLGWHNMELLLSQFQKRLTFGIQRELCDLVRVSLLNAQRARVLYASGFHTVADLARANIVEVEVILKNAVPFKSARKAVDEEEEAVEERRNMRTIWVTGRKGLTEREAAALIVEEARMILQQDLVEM
row,Compound,IC50 [nM]
1,COc1cnc(C(F)F)cc1-c1cc(N2CCN(C(=O)OC(C)(C)C)CC2=O)ccc1C(=O)Nc1nnc(C#CC2CC2)s1 [Compound 144],0.26
2,COc1cnc(C(F)F)cc1-c1cc(NC(C)=O)ccc1C(=O)Nc1nnc(C#CC2CC2)s1 [Compound 225],0.56
3,CNC(=O)Cc1ccc(C(=O)Nc2ncc(C#CC3CC3)s2)c(-c2cc(C(F)F)ncc2OC)c1 [Compound 204],0.71
4,COCCn1ccc(-c2cc(-c3cc(C(F)F)ncc3OC)c(C(=O)Nc3nnc(C#CC4CC4)s3)cn2)n1 [Compound 427],0.27
5,COc1cnc(C(F)F)cc1-c1cc(-c2cc(C)n(C)n2)ncc1C(=O)Nc1nnc(C#CC2CC2)s1 [Compound 450],0.48
6,COc1cnc(Cl)cc1-c1cc(-c2cc[nH]n2)ccc1C(=O)Nc1nnc(C#CC2CC2)s1 [Compound 46],0.2
7,COc1cnc(Cl)cc1-c1cn2ncnc2cc1C(=O)Nc1nnc(C#CC2CC2)s1 [Compound 96],2.6
8,CN(C)C(=O)Cn1cc(-c2cc(F)ccc2Cl)c(C(=O)Nc2nnc(C#CC3CC3)s2)cc1=O [Compound 66],0.6
9,COc1cnc(C(F)(F)F)cc1-c1cnccc1C(=O)Nc1nnc(C#CC2CC23CC3)s1 (stereo not drawn) [Compound 69],0.28
10,COc1cnc(C(F)F)cc1-c1cc(N2CC3(CC(C(=O)N(C)C)C3)C2)ncc1C(=O)Nc1nnc(C#CC2CC2)s1 [Compound 129],1.6
11,COc1cnc(C(F)F)cc1-c1cc(CC(=O)N2CC(C)(O)C2)ccc1C(=O)Nc1nnc(C#CC2CC2)s1 [Compound 206],< 0.25
12,COc1cnc(C(F)F)cc1-c1cc(N2CCOC[C@@H]2C)ncc1C(=O)Nc1nnc(C#CC2CC2)s1 [Compound 377],> 100
13,COc1cnc(C(F)(F)F)nc1-c1cnccc1C(=O)Nc1nnc(C#CC2CC2)s1 [Compound 338],4.7
14,COc1cnc(Cl)cc1-c1cn(CC(N)=O)c(=O)cc1C(=O)Nc1nnc(C#CC2CC23CC3)s1 (stereo not drawn) [Compound 83],< 0.25
15,COc1cnc(C(F)F)cc1-c1cc(-c2cn(C)cn2)ccc1C(=O)Nc1nnc(C#CC2CC2)s1 [Compound 201],< 0.25
16,COc1cnc(C(F)F)cc1-c1cc(N2CCN(CC3CC3)CC2=O)ncc1C(=O)Nc1nnc(C#CC2CC2)s1 [Compound 386],< 0.25
17,"COc1cnc(C(F)F)cc1-c1cc(-c2ccn(C)n2)cnc1C(=O)Nc1ncc(C#CC2CC2)s1 [Compound 139, N-(5-(cyclopropylethynyl)thiazol-2-yl)-2′-(difluoromethyl)-5′-methoxy-5-(1-methyl-1H-pyrazol-3-yl)-[3,4′-bipyridine]-2-carboxamide]",61
18,COc1cnc(C(F)F)cc1-c1cc(-c2nccn2C)ncc1C(=O)Nc1nnc(C#CC2CC2)s1 [Compound 404],< 0.25
19,COc1cnc(C(F)F)cc1-c1cc(N2CCC(n3ccnc3)CC2)ncc1C(=O)Nc1nnc(C#CC2CC2)s1 [Compound 125],21
20,COc1cnc(C(F)F)cc1-c1cc(-c2ccn(C)n2)ncc1C(=O)Nc1nnc(C#Cc2cc(C)[nH]n2)s1 [Compound 161],< 0.25
21,COc1cnc(C(F)F)cc1-c1cc(C#CC(C)(C)CO)ncc1C(=O)Nc1nnc(C#CC2CC2)s1 [Compound 241],0.33
22,COc1cnc(C(F)F)cc1-c1cc(C#CC2(C(=O)N(C)C)CC2)ncc1C(=O)Nc1ncc(C#CC2CC2)s1 [Compound 210],< 0.25
23,COc1cnc(C(F)F)cc1-c1cc(CC#N)ncc1C(=O)Nc1nnc(C#CC2CC2)s1 [Compound 226],0.61

row,Compound,IC50 [nM]
1,COc1cnc(Cl)cc1-c1cnccc1C(=O)Nc1nnc(C2C[C@H]2c2ccc(C#N)cc2O)s1 (stereo partly drawn) [Compound 273],1.8
2,O=C(Nc1nnc(C#CC2CC2)s1)c1cc(=O)n(Cc2nccs2)cc1-c1cc(C(F)(F)F)ccc1Cl [Compound 65],2.2
3,COc1cnc(C(F)F)cc1-c1cc(C#Cc2cnn(C)c2)ncc1C(=O)Nc1nnc(C#CC2CC2)s1 [Compound 185],< 0.25
4,[2H]C([2H])([2H])N(C(C)=O)c1ccc(C(=O)Nc2nnc(C#CC3CC3)s2)c(-c2cc(C(F)F)ncc2OC)c1 [Compound 232],< 0.25
5,COc1cnc(Cl)cc1-c1cn2cc(C(=O)N(C)C)nc2cc1C(=O)Nc1nnc(C#CC2CC2)s1 [Compound 314],0.49
6,COc1cnc(Cl)cc1-c1cn(Cc2nccs2)c(=O)cc1C(=O)Nc1nnc(C#CC2CC2)s1 [Compound 333],3.8
7,COc1cnc(C(F)F)cc1-c1cc(N2CCN(C)C(=O)C2)ncc1C(=O)Nc1nnc(C#CC2CC2)s1 [Compound 128],4
8,COc1cnc(C(F)F)cc1-c1cc(C(=O)N2CCOCC2)ccc1C(=O)Nc1nnc(C#CC2CC2)s1 [Compound 254],1.7
9,COc1cnc(Cl)cc1-c1cc(-c2cccnn2)ccc1C(=O)Nc1nnc(C#CC2CC2)s1 [Compound 45],2.2
10,COc1cnc(C(F)F)cc1-c1cc(N(C)Cc2cnn(C)c2)ccc1C(=O)Nc1nnc(C#CC2CC2)s1 [Compound 136],8.5
11,COc1cnc(C(F)F)cc1-c1cc(CC#N)ncc1C(=O)Nc1nnc(C#Cc2ccc(Cl)cc2)s1 [Compound 178],< 0.25
12,CNC(=O)Cn1cc(-c2cc(C(F)(F)F)ccc2OC)c(C(=O)Nc2nnc(C#CC3CC3)s2)cc1=O [Compound 93],0.32
13,COc1cnc(C(F)F)cc1-c1cc(CC(=O)N2CC(C)(O)C2)ccc1C(=O)Nc1ncc(C#CC2CC2)s1 [Compound 205],0.16
14,COc1ccc(C(F)(F)F)cc1-c1cn(C)c(=O)cc1C(=O)Nc1nnc(C#Cc2cc(C)[nH]n2)s1 [Compound 102],1.2
15,COc1cnc(C(F)F)cc1-c1cc(N2CC(=O)N(C)C3(CC3)C2=O)ncc1C(=O)Nc1nnc(C#CC2CC2)s1 [Compound 469],< 0.25
16,CNC(=O)Cn1cc(-c2cc(Cl)ncc2OC(F)F)c(C(=O)Nc2nnc(C#CC3CC3)s2)cc1=O [Compound 77],< 0.25
17,COc1cnc(Cl)cc1-c1cc(-c2n[nH]cc2C)ccc1C(=O)Nc1nnc(C#CC2CC2)s1 [Compound 298],0.8
18,COc1cnc(C(F)F)cc1-c1cc(C)ncc1C(=O)Nc1nnc(C#CC2CC2)s1 [Compound 278],< 0.25
19,COc1cnc(C(F)F)cc1-c1cc(C#CC2(n3cccn3)CC2)ncc1C(=O)Nc1nnc(C#CC2CC2)s1 [Compound 233],< 0.25
20,"COc1cnc(C(F)F)cc1-c1cc(N2CCOCC2=O)ccc1C(=O)Nc1nnc(C#CC2CC2)s1 [Compound 108, N-(5-(cyclopropylethynyl)-1,3,4-thiadiazol-2-yl)-2-(2-(difluoromethyl)-5-methoxypyridin-4-yl)-4-(3-oxomorpholino)benzamide]",< 0.25
21,COc1cnc(C(F)F)cc1-c1cc(C2C[C@H]2C(=O)N(C)C)ccc1C(=O)Nc1nnc(C#CC2CC2)s1 (stereo partly drawn) [Compound 363],< 0.25
22,COc1cnc(Cl)cc1-c1cnccc1C(=O)Nc1nnc([C@@H]2C[C@H]2c2ccc(C#N)c(C)c2)s1 [Compound 287],0.93
